Measured values as given in PubChem BioAssay AID1963864 (Molecular Pharmacology Branch, DTP, NCI, 2024).

Test system: KRAS PDC multicell spheroid viability
Experiment: Anticancer human tumor 521955-158-R6-J3-PDC patient-derived pancreatic carcinoma cell line growth inhibition [KRAS2]
Details: for IC50: curve of first compound; for viability, T/C: stronger effect = lower value; active = viability on the fitted dose curve at most 10% of control; inactive = the rest
Outline: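 KRAS-mutant tumor cells were grown as spheroids with HUVEC endothelial cells and human MSCs as stroma. Targeted agents were tested alone and with KRAS pathway inhibitors. Doses started at or near clinical Cmax, or 10 microM, descending half-log.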

[1] = second compound 0.0316 µM, first compound 0.0316 µM
[2] = second compound 0.0316 µM, first compound 0.1 µM
[3] = second compound 0.0316 µM, first compound 0.316 µM
[4] = second compound 0.0316 µM, first compound 1 µM
[5] = second compound 0.0316 µM, first compound 3.16 µM
[6] = second compound 0.1 µM, first compound 0.01 µM
[7] = second compound 0.1 µM, first compound 0.0316 µM
[8] = second compound 0.1 µM, first compound 0.1 µM
[9] = second compound 0.1 µM, first compound 0.316 µM
[10] = second compound 0.1 µM, first compound 1 µM
[11] = second compound 0.1 µM, first compound 3.16 µM
[12] = second compound 0.316 µM, first compound 0.01 µM
[13] = second compound 0.316 µM, first compound 0.0316 µM
[14] = second compound 0.316 µM, first compound 0.1 µM
[15] = second compound 0.316 µM, first compound 0.316 µM
[16] = second compound 0.316 µM, first compound 1 µM
[17] = second compound 0.316 µM, first compound 3.16 µM
[18] = second compound 1 µM, first compound 0.01 µM
[19] = second compound 1 µM, first compound 0.0316 µM
[20] = second compound 1 µM, first compound 0.1 µM
[21] = second compound 1 µM, first compound 0.316 µM
[22] = second compound 1 µM, first compound 1 µM
[23] = second compound 1 µM, first compound 3.16 µM
[24] = second compound 3.16 µM, first compound 0.01 µM
[25] = second compound 3.16 µM, first compound 0.0316 µM
[26] = second compound 3.16 µM, first compound 0.1 µM
[27] = second compound 3.16 µM, first compound 0.316 µM
[28] = second compound 3.16 µM, first compound 1 µM
[29] = second compound 3.16 µM, first compound 3.16 µM
[30] = second compound 0.1 µM, first compound 10 µM
[31] = second compound 0.316 µM, first compound 10 µM
[32] = second compound 1 µM, first compound 10 µM
[33] = second compound 3.16 µM, first compound 10 µM
[34] = second compound 10 µM, first compound 0.01 µM
[35] = second compound 10 µM, first compound 0.0316 µM
[36] = second compound 10 µM, first compound 0.1 µM
[37] = second compound 10 µM, first compound 0.316 µM
[38] = second compound 10 µM, first compound 1 µM
[39] = second compound 10 µM, first compound 3.16 µM
[40] = second compound 10 µM, first compound 10 µM
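Also: drug exposure lasted seven days.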
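For viability, T/C in this document: 100% = DMSO vehicle wells and lower means fewer viable cells.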

CC1COCCN1c1cc(-c2ccnn2C)c2ccnc(-c3ccn[nH]3)c2n1 (stereo not given) + C=CC(=O)N1CCN(c2nc(OCC3CCCN3C)nc3c2CCN(c2cccc4cccc(C)c24)C3)CC1CC#N
inactive: viability, T/C (second compound 0.0316 µM, first compound 0.01 µM) 88% | viability, T/C [1] 90.2% | viability, T/C [2] 89.7% | viability, T/C [3] 79.8% | viability, T/C [4] 78.8% | viability, T/C [5] 92.9% | viability, T/C [6] 92.6% | viability, T/C [7] 95.3% | viability, T/C [8] 77% | viability, T/C [9] 71.4% | viability, T/C [10] 75% | viability, T/C [11] 94.5% | viability, T/C [12] 89.5% | viability, T/C [13] 85.1% | viability, T/C [14] 73.1% | viability, T/C [15] 74.7% | viability, T/C [16] 73.6% | viability, T/C [17] 76.8% | viability, T/C [18] 71.7% | viability, T/C [19] 79% | viability, T/C [20] 68% | viability, T/C [21] 69.4% | viability, T/C [22] 59.9% | viability, T/C [23] 71.7% | viability, T/C [24] 52.2% | viability, T/C [25] 39.7% | viability, T/C [26] 31.9% | viability, T/C [27] 36.5% | viability, T/C [28] 27.6% | viability, T/C [29] 45.8%
12.1 nM: IC50 (second compound 3.16 µM)
> 3160 nM: IC50 (second compound 0.0316 µM) | IC50 (second compound 0.1 µM) | IC50 (second compound 0.316 µM) | IC50 (second compound 1 µM)

CC1OCC2(CCN(c3cnc(Sc4ccnc(N)c4Cl)c(N)n3)CC2)C1N (stereo not given) + C=CC(=O)N1CCN(c2nc(OCC3CCCN3C)nc3c2CCN(c2cccc4cccc(C)c24)C3)CC1CC#N
< 31.6 nM: IC50 (second compound 3.16 µM)
> 10000 nM: IC50 (second compound 0.0316 µM) | IC50 (second compound 0.1 µM) | IC50 (second compound 0.316 µM) | IC50 (second compound 1 µM)
inactive: viability, T/C [1] 88.4% | viability, T/C [2] 103% | viability, T/C [3] 92.2% | viability, T/C [4] 96% | viability, T/C [5] 114% | viability, T/C (second compound 0.0316 µM, first compound 10 µM) 109% | viability, T/C [7] 92.7% | viability, T/C [8] 97.4% | viability, T/C [9] 84.2% | viability, T/C [10] 86.1% | viability, T/C [11] 114% | viability, T/C [30] 114% | viability, T/C [13] 87.5% | viability, T/C [14] 86.1% | viability, T/C [15] 85% | viability, T/C [16] 90.4% | viability, T/C [17] 101% | viability, T/C [31] 106% | viability, T/C [19] 75.7% | viability, T/C [20] 68.7% | viability, T/C [21] 64.9% | viability, T/C [22] 67.4% | viability, T/C [23] 90.2% | viability, T/C [32] 113% | viability, T/C [25] 40.8% | viability, T/C [26] 32.3% | viability, T/C [27] 25.2% | viability, T/C [28] 37.3% | viability, T/C [29] 28.9% | viability, T/C [33] 23.7%

CC(=O)OC12COC1CC(O)C1(C)C(=O)C(O)C3=C(C)C(OC(=O)C(O)C(NC(=O)OC(C)(C)C)c4ccccc4)CC(O)(C(OC(=O)c4ccccc4)C21)C3(C)C (stereo not given) + CC1OCC2(CCN(c3cnc(Sc4ccnc(N)c4Cl)c(N)n3)CC2)C1N
> 3160 nM: IC50 (second compound 0.1 µM) | IC50 (second compound 0.316 µM) | IC50 (second compound 1 µM) | IC50 (second compound 3.16 µM) | IC50 (second compound 10 µM)
inactive: viability, T/C [6] 82.9% | viability, T/C [7] 65.4% | viability, T/C [8] 74.1% | viability, T/C [9] 76.1% | viability, T/C [10] 95.5% | viability, T/C [11] 114% | viability, T/C [12] 83% | viability, T/C [13] 84.2% | viability, T/C [14] 72.5% | viability, T/C [15] 74.9% | viability, T/C [16] 87.8% | viability, T/C [17] 108% | viability, T/C [18] 79.8% | viability, T/C [19] 83.4% | viability, T/C [20] 69.7% | viability, T/C [21] 78.6% | viability, T/C [22] 96.7% | viability, T/C [23] 114% | viability, T/C [24] 88.7% | viability, T/C [25] 86.6% | viability, T/C [26] 87.3% | viability, T/C [27] 94.4% | viability, T/C [28] 106% | viability, T/C [29] 109% | viability, T/C [34] 99.7% | viability, T/C [35] 88.9% | viability, T/C [36] 95% | viability, T/C [37] 99% | viability, T/C [38] 96.1% | viability, T/C [39] 118%

CN(C)C/C=C/C(=O)Nc1cc2c(Nc3ccc(F)c(Cl)c3)ncnc2cc1O[C@H]1CCOC1 + CC1OCC2(CCN(c3cnc(Sc4ccnc(N)c4Cl)c(N)n3)CC2)C1N
inactive: viability, T/C (second compound 0.1 µM, first compound 0.000316 µM) 99.4% | viability, T/C (second compound 0.1 µM, first compound 0.001 µM) 84.2% | viability, T/C (second compound 0.1 µM, first compound 0.00316 µM) 76.7% | viability, T/C [6] 55.3% | viability, T/C [7] 62.1% | viability, T/C [8] 54.8% | viability, T/C (second compound 0.316 µM, first compound 0.000316 µM) 99% | viability, T/C (second compound 0.316 µM, first compound 0.001 µM) 84.7% | viability, T/C (second compound 0.316 µM, first compound 0.00316 µM) 69.8% | viability, T/C [12] 52.9% | viability, T/C [13] 53% | viability, T/C [14] 48.3% | viability, T/C (second compound 1 µM, first compound 0.000316 µM) 105% | viability, T/C (second compound 1 µM, first compound 0.001 µM) 86.4% | viability, T/C (second compound 1 µM, first compound 0.00316 µM) 87.4% | viability, T/C [18] 64.9% | viability, T/C [19] 69.8% | viability, T/C [20] 44.7% | viability, T/C (second compound 3.16 µM, first compound 0.000316 µM) 124% | viability, T/C (second compound 3.16 µM, first compound 0.001 µM) 117% | viability, T/C (second compound 3.16 µM, first compound 0.00316 µM) 89.7% | viability, T/C [24] 124% | viability, T/C [25] 28.3% | viability, T/C [26] 34.8% | viability, T/C (second compound 10 µM, first compound 0.000316 µM) 110% | viability, T/C (second compound 10 µM, first compound 0.001 µM) 101% | viability, T/C (second compound 10 µM, first compound 0.00316 µM) 71.8% | viability, T/C [34] 60.9% | viability, T/C [35] 50.1% | viability, T/C [36] 49.2%
86.2 nM: IC50 (second compound 1 µM)
51.1 nM: IC50 (second compound 0.316 µM)
24.4 nM: IC50 (second compound 3.16 µM)
> 100 nM: IC50 (second compound 0.1 µM) | IC50 (second compound 10 µM)

COC(=O)c1ccc2c(C(=Nc3ccc(N(C)C(=O)CN4CCN(C)CC4)cc3)c3ccccc3)c(O)[nH]c2c1 + CC1OCC2(CCN(c3cnc(Sc4ccnc(N)c4Cl)c(N)n3)CC2)C1N
active: viability, T/C [30] 1.22% | viability, T/C [31] 0.76% | viability, T/C [32] 0.47% | viability, T/C [33] 0.29% | viability, T/C [39] 6.64% | viability, T/C [40] 2.18%
2590 nM: IC50 (second compound 0.1 µM)
2120 nM: IC50 (second compound 1 µM)
inactive: viability, T/C [7] 79.8% | viability, T/C [8] 88.5% | viability, T/C [9] 108% | viability, T/C [10] 114% | viability, T/C [11] 40% | viability, T/C [13] 82.5% | viability, T/C [14] 102% | viability, T/C [15] 110% | viability, T/C [16] 113% | viability, T/C [17] 23.6% | viability, T/C [19] 106% | viability, T/C [20] 104% | viability, T/C [21] 111% | viability, T/C [22] 95.6% | viability, T/C [23] 25.5% | viability, T/C [25] 101% | viability, T/C [26] 120% | viability, T/C [27] 103% | viability, T/C [28] 99.2% | viability, T/C [29] 25.4% | viability, T/C [35] 94.8% | viability, T/C [36] 94.8% | viability, T/C [37] 83.7% | viability, T/C [38] 72.2%
2150 nM: IC50 (second compound 0.316 µM) | IC50 (second compound 3.16 µM)
1470 nM: IC50 (second compound 10 µM)

O=C(c1cc(Cc2n[nH]c(=O)c3ccccc23)ccc1F)N1CCN(C(=O)C2CC2)CC1 + CC1OCC2(CCN(c3cnc(Sc4ccnc(N)c4Cl)c(N)n3)CC2)C1N
> 10000 nM: IC50 (second compound 0.1 µM) | IC50 (second compound 0.316 µM) | IC50 (second compound 1 µM) | IC50 (second compound 3.16 µM) | IC50 (second compound 10 µM)
inactive: viability, T/C [7] 83% | viability, T/C [8] 79.6% | viability, T/C [9] 75.8% | viability, T/C [10] 69.6% | viability, T/C [11] 73.5% | viability, T/C [30] 84.1% | viability, T/C [13] 83.8% | viability, T/C [14] 85.8% | viability, T/C [15] 84.1% | viability, T/C [16] 74.8% | viability, T/C [17] 66.2% | viability, T/C [31] 69.5% | viability, T/C [19] 75.8% | viability, T/C [20] 78.2% | viability, T/C [21] 81% | viability, T/C [22] 76% | viability, T/C [23] 71.9% | viability, T/C [32] 75.9% | viability, T/C [25] 96% | viability, T/C [26] 98.6% | viability, T/C [27] 88% | viability, T/C [28] 75.9% | viability, T/C [29] 78.3% | viability, T/C [33] 72.1% | viability, T/C [35] 85.3% | viability, T/C [36] 85.6% | viability, T/C [37] 61.5% | viability, T/C [38] 70.3% | viability, T/C [39] 70.8% | viability, T/C [40] 63.9%
